Source: the NIST ThermoML archive (doi:10.1016/j.jct.2014.01.025)
Numbers after ± are expanded uncertainties.

Settings: Liquid; for Critical pressure: Direct measurement; for Critical temperature: Visual observation in an unstirred cell

Row | Critical pressure [kPa] | Critical temperature [K] | SMILES
1 | 5172 ± 31 | 537 ± 2.4 | CCCO [propan-1-ol]
2 | 6135 ± 31 | 514.2 ± 2.4 | CCO [ethanol]
3 | 2761 ± 31 | 540 ± 2.4 | CCCCCCC [heptane]
4 | 8128 ± 31 | 512.3 ± 2.4 | CO [methanol]
